In patent US20140148432A1, “Compounds for the Treatment of Neurological Disorders” (priority 2009, published 2014):
pIC50: −log10 of the molar value. Where two headings read alike, the source gives them in different places.

How the values were obtained:
[1] = target: GluN1/GluN2A subtype of NMDA receptors (Rattus norvegicus, UniProt Q00959); experiment: NMDA receptor subunit selectivity, GluN1/GluN2A in Xenopus oocytes; format: cell-based; conditions: 2 min; 10 μM antagonist with 50 μM glutamate and 30 μM glycine, two min; agonists alone = 100%; read-out: GluN2A % Current Remaining
Description: (§1) Stage V and VI oocytes were surgically removed from the ovaries of large, well-fed and healthy Xenopus laevis anesthetized with 3-amino-benzoic acid ethyl ester (3 gm/l). Clusters of isolated oocytes were incubated with 292 U/ml Worthington (Freehold, N.J.) type IV collagenase or 1.3 mg/ml collagenase (Life Technologies, Gaithersburg, Md.; 17018-029) for 2 hr in Ca^2+-free solution comprised of (in mM) 115 NaCl, 2.5 KCl, and 10 HEPES, pH 7.5, with slow agitation to remove the follicular cell layer. Oocytes were then washed in the same solution supplemented with 1.8 mM CaCl2 and maintained in Barth's solution comprised of (in mM): 88 NaCl, 1 KCl, 2.4 NaHCO3, 10 HEPES, 0.82 MgSO4, 0.33 Ca(NO3)2, and 0.91 CaCl2 and supplemented with 100 μg/ml gentamycin, 10 μg/ml streptomycin, and 10 μg/ml penicillin. Oocytes were manually defolliculated and injected within 24 hrs of isolation with 3-5 ng of GluN1 subunit cRNA and 7-10 ng of GluN2 cRNA subunit in a 50 nl volume, and incubated in Barth's solution at 18° C. for 2-7 d. Glass injection pipettes had tip sizes ranging from 10-20 microns, and were backfilled with mineral oil. cRNA was synthesized from linearized template cDNA for rat glutamate receptor subunits according to manufacturer specifications (Ambion).
(§2) Two electrode voltage-clamp recordings were made 2-7 days post-injection. Oocytes were placed in a dual-track plexiglass recording chamber with a single perfusion line that splits in a Y-configuration to perfuse two oocytes. Dual recordings were made at room temperature (23° C.) using two Warner 00725B two-electrode voltage clamp amplifiers, arranged as recommended by the manufacturer. Glass microelectrodes (1-10 Megaohms) were filled with 300 mM KCl (voltage electrode) or 3 M KCl (current electrode). The bath clamps communicated across silver chloride wires placed into each side of the recording chamber, both of which were assumed to be at a reference potential of 0 mV. Oocytes were perfused with a solution comprised of (in mM) 90 NaCl, 1 KCl, 10 HEPES, […] and 0.5 BaCl2; pH was adjusted by addition of 1-3 M NaOH or HCl. Oocytes were recorded under voltage clamp at −40 mV. Final concentrations for glutamate and glycine were 50 μM and 30 μM, respectively. Concentration-response curves for experimental compounds were obtained by applying in successive fashion maximal glutamate/glycine, followed by glutamate/glycine plus variable concentrations of experimental compounds. Dose response curves consisting of 4 to 8 concentrations were obtained in this manner. The baseline leak current at −40 mV was measured before and after recording, and the full recording linearly corrected for any change in leak current. The level of inhibition by applied experimental compounds was expressed as a percent of the initial glutamate response, and averaged together across oocytes from multiple experiments. Results were pooled, and the average percent responses at antagonist concentrations were fit by the equation,
(§3) GluN1/GluN2A and GluN1/GluN2D subtype of NMDA receptors were expressed in Xenopus laevis as described in Example 13. Here, a 10 μM concentration of the antagonist was perfused with 50 μM glutamate and 30 μM glycine onto the oocyte for two min and the remaining current in the presence of the antagonist was compared to the maximal current obtained with 50 μM glutamate and 30 μM glycine alone (defined as 100%).

GluN1/GluN2B receptors [2] = target: GluN1/GluN2B receptors (Homo sapiens, UniProt Q05586+Q13224); experiment: IC50 of GluN1/GluN2B receptors expressed in Xenopus oocytes (two electrode voltage-clamp), human; format: cell-based; conditions: for Human pH Boost Ratio (IC50 pH 7.6/IC50 pH 6.9): IC50 at pH 7.6 divided by IC50 at pH 6.9; for pIC50: 30 μM glycine
[3] = target: T1, human ether-a-go-go potassium channel (hERG) expressed in HEK293 cells (Homo sapiens, UniProt Q12809); experiment: hERG binding, displacement of [3H]-astemizole; conditions: 10 μM test compound, 1.5 nM [3H]-astemizole, duplicate
T1 construct: expressed in transfected cells; host or cells: HEK293 cells
T1 sequence (Q12809 whole entry): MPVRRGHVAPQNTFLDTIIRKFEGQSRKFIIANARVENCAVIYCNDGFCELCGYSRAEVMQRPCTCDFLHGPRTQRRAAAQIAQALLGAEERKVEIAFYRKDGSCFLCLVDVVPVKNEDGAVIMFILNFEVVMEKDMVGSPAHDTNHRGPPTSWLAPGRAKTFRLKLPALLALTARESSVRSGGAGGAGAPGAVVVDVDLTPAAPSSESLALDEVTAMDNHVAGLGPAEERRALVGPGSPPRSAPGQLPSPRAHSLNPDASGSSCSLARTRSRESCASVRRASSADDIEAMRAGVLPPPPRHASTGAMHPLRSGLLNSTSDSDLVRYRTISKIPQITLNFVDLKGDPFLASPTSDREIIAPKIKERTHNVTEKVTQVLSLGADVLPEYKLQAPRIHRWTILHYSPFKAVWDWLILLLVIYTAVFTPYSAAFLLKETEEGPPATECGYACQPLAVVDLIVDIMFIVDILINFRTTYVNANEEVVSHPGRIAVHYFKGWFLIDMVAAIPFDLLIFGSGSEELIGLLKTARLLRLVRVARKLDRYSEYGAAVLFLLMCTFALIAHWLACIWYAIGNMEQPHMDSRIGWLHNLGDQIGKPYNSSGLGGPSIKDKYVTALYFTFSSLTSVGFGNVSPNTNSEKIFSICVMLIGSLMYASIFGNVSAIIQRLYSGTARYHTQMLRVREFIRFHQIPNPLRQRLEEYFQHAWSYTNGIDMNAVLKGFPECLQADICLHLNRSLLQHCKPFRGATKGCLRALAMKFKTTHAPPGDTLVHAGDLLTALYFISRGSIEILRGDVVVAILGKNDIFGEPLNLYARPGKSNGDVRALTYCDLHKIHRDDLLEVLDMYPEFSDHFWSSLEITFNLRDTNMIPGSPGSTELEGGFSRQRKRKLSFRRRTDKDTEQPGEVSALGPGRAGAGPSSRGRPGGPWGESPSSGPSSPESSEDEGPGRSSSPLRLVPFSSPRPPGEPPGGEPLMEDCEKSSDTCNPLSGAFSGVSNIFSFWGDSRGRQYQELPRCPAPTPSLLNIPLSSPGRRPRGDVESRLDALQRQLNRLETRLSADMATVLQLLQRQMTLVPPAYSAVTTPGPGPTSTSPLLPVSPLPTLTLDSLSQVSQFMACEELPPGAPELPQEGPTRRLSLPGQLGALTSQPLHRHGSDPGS
Description: (§4) Binding to the human ether-a-go-go potassium channel (hERG) expressed in HEK293 cells by displacement of 1.5 nM [3H]-astemizole. Each result represents the average of displacement binding experiments done in duplicate at 10 uM of the test compound. Percent displacement of 0.25 nM [3H]-prazosin from Wistar rat brain membranes. Each result represents the average of displacement binding experiments done in duplicate at 3 μM of the test compound.

α1-Adrenergic = α1-Adrenergic binding, displacement of [3H]-prazosin from brain membranes; conditions: 3 μM test compound, 0.25 nM [3H]-prazosin, Wistar rat brain membranes, duplicate
Description: as §4

[4] = target: GluN1/GluN2D subtype of NMDA receptors (Rattus norvegicus, UniProt Q62645); experiment: NMDA receptor subunit selectivity, GluN1/GluN2D in Xenopus oocytes; format: cell-based; conditions: 2 min; 10 μM antagonist with 50 μM glutamate and 30 μM glycine, two min; agonists alone = 100%; read-out: GluN2D % Current Remaining
Chain of GluN1/GluN2D subtype of NMDA receptors (Q62645 28-1323, other chains not shown): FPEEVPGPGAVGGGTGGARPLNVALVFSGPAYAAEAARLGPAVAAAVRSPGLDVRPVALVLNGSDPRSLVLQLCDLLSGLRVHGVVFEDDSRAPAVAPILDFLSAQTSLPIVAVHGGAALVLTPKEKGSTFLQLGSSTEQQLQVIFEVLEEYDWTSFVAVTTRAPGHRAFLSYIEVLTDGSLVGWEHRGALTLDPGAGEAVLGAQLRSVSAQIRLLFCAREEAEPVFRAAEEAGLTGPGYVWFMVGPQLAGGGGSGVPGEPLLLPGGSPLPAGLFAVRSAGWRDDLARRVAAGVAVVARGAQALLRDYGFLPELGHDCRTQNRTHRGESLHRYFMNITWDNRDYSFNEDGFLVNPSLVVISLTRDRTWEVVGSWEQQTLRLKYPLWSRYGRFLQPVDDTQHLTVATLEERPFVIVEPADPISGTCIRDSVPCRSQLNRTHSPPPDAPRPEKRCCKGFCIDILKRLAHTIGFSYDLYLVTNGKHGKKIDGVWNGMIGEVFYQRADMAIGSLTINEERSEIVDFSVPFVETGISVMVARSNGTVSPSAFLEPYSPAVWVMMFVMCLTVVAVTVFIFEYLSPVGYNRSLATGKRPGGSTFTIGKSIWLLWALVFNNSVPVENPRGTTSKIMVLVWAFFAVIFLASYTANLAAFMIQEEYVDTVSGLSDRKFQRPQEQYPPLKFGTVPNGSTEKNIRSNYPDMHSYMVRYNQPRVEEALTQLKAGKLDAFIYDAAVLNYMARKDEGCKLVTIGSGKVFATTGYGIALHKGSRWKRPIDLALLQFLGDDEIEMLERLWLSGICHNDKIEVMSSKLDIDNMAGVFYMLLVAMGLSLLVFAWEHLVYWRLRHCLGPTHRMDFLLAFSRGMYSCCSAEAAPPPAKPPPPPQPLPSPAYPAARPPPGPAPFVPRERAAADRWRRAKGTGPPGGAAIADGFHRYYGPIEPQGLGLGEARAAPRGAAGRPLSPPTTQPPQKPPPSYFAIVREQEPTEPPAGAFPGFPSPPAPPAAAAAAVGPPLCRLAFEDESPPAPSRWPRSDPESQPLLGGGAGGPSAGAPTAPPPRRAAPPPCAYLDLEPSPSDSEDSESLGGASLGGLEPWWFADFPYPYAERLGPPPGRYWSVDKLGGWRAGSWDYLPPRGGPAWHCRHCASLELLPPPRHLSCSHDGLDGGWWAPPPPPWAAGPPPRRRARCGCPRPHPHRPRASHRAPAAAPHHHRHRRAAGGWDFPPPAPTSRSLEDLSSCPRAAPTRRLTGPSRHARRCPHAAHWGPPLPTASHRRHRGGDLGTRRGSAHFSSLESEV
Description: as §1, §2, §3

GluN1/GluN2B receptors [5] = target: GluN1/GluN2B receptors (Rattus norvegicus, UniProt P35439+Q00960); experiment: IC50 of GluN1/GluN2B receptors expressed in Xenopus oocytes (two electrode voltage-clamp), rat; format: cell-based; conditions: pH 7.4, 50 μM glutamate, 30 μM glycine
Chain of GluN1/GluN2B receptors (Rattus norvegicus, UniProt P35439+Q00960) (Q00960 27-1482, other chains not shown): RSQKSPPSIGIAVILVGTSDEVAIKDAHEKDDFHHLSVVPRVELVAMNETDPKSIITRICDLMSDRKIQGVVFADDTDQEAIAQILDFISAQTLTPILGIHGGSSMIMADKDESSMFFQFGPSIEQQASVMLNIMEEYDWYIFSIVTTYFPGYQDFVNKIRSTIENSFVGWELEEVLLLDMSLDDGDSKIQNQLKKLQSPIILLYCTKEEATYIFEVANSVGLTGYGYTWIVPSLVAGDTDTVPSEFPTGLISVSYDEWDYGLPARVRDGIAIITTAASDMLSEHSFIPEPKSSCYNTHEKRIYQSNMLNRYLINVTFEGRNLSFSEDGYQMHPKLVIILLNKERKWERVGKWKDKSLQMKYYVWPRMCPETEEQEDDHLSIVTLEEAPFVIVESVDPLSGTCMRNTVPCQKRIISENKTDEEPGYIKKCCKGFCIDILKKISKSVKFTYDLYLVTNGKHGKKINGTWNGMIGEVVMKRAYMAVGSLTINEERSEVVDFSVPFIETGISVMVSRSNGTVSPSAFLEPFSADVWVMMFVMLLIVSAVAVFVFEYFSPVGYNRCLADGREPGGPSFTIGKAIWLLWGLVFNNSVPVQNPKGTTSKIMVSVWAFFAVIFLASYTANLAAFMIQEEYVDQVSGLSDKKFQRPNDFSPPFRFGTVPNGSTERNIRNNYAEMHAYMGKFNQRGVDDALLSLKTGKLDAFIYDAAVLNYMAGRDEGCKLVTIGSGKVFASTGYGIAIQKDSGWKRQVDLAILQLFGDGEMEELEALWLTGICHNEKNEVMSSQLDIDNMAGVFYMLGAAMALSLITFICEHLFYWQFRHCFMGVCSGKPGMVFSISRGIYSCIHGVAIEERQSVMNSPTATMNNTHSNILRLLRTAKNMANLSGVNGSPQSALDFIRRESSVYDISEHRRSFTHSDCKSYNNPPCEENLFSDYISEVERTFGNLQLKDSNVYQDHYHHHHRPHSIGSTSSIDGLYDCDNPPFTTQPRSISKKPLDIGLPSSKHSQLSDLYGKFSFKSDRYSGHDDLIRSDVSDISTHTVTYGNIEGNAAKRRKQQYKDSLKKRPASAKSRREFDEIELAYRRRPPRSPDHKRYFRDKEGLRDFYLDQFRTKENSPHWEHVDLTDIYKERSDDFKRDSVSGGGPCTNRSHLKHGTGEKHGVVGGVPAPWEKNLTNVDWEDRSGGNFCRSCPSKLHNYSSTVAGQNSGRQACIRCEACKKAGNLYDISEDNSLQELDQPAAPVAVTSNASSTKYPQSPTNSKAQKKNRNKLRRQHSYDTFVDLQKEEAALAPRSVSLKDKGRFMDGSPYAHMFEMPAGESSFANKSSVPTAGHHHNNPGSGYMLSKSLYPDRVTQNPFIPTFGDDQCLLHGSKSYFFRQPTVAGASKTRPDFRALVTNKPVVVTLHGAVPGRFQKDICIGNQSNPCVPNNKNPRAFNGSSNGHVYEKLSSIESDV
Description: as §1, §2
Percent Response=(100−minimum)/(1+([conc]/IC50)^nH)+minimum
where minimum is the residual percent response in saturating concentration of the experimental compounds, IC50 is the concentration of antagonist that causes half of the achievable inhibition, and nH is a slope factor describing steepness of the inhibition curve. Minimum was constrained to be greater than or equal to 0.
Recordings were made at pH 6.9, pH 7.4, and pH 7.6. The pH Boost ratio calculated by dividing the IC50 measured at pH 7.6 by the IC50 measured at pH 6.9.

[6] = pH 6.9, 50 μM glutamate, read-out: Human pH 6.9 IC50
[7] = pH 7.4, 50 μM glutamate, read-out: Human pH 7.4 IC50

## O=C1CCc2cc(OCC3CCN(C(=O)/C=C/c4ccc(Cl)c(Cl)c4)CC3)ccc2N1 [Compound 6, (E)-6-((1-(3-(3,4-dichlorophenyl)acryloyl)piperidin-4-yl)methoxy)-3,4-dihydroquinolin-2(1H)-one]
[1]
  remaining activity at 10 µM: 103%
GluN1/GluN2B receptors [2]
  Human pH Boost Ratio (IC50 pH 7.6/IC50 pH 6.9): 1.1
GluN1/GluN2B receptors [2]; [6]
  pIC50: 6.05
GluN1/GluN2B receptors [2]; [7]
  pIC50: 5.79
[3]
  hERG Binding % Displacement @ 10 μM: 85%
α1-Adrenergic
  α1-Adrenergic binding % Displacement @ 3 μM: 28%
[4]
  remaining activity at 10 µM: 101%
GluN1/GluN2B receptors [5]
  pIC50: 5.90

## O=C1CCc2cc(OCC3CCN(C(=O)OCc4ccc(Cl)cc4)CC3)ccc2N1 [Compound 11, 4-chlorobenzyl 4-(((2-oxo-1,2,3,4-tetrahydroquinolin-6-yl)oxy)methyl)piperidine-1-carboxylate]
[1]
  remaining activity at 10 µM: 111%
GluN1/GluN2B receptors [2]
  Human pH Boost Ratio (IC50 pH 7.6/IC50 pH 6.9): 1.4
GluN1/GluN2B receptors [2]; [6]
  pIC50: 6.23
GluN1/GluN2B receptors [2]; [7]
  pIC50: 6.06
[3]
  hERG Binding % Displacement @ 10 μM: 56%
α1-Adrenergic
  α1-Adrenergic binding % Displacement @ 3 μM: 16%
[4]
  remaining activity at 10 µM: 104%
GluN1/GluN2B receptors [5]
  pIC50: 6.08

## O=C1CCc2cc(OCC3CCN(C(=O)Nc4ccc(Cl)cc4)CC3)ccc2N1 [Compound 13, N-(4-chlorophenyl)-4-(((2-oxo-1,2,3,4-tetrahydroquinolin-6-yl)oxy)methyl)piperidine-1-carboxamide]
[1]
  remaining activity at 10 µM: 105%
GluN1/GluN2B receptors [2]
  Human pH Boost Ratio (IC50 pH 7.6/IC50 pH 6.9): 2.0
GluN1/GluN2B receptors [2]; [6]
  pIC50: 6.55
GluN1/GluN2B receptors [2]; [7]
  pIC50: 6.33
[3]
  hERG Binding % Displacement @ 10 μM: 37%
α1-Adrenergic
  α1-Adrenergic binding % Displacement @ 3 μM: 16%
[4]
  remaining activity at 10 µM: 106%
GluN1/GluN2B receptors [5]
  pIC50: 6.47

## O=C1CCc2cc(OCC3CCN(C(=O)Cc4ccc(Cl)cc4)CC3)ccc2N1 [Compound 15, 6-((1-(2-(4-chlorophenyl)acetyl)piperidin-4-yl)methoxy)-3,4-dihydroquinolin-2(1H)-one]
[1]
  remaining activity at 10 µM: 96.3%
GluN1/GluN2B receptors [2]
  Human pH Boost Ratio (IC50 pH 7.6/IC50 pH 6.9): 8.6
GluN1/GluN2B receptors [2]; [6]
  pIC50: 6.31
GluN1/GluN2B receptors [2]; [7]
  pIC50: 5.70
[3]
  hERG Binding % Displacement @ 10 μM: 18%
α1-Adrenergic
  α1-Adrenergic binding % Displacement @ 3 μM: 13%
[4]
  remaining activity at 10 µM: 101%
GluN1/GluN2B receptors [5]
  pIC50: 5.49

## O=C1CCc2cc(OCC3CCN(C(=O)Nc4ccc(C(F)(F)F)cc4)CC3)ccc2N1 [Compound 17, 4-(((2-oxo-1,2,3,4-tetrahydroquinolin-6-yl)oxy)methyl)-N-(4-(trifluoromethyl)phenyl)piperidine-1-carboxamide]
[1]
  remaining activity at 10 µM: 98.7%
GluN1/GluN2B receptors [2]
  Human pH Boost Ratio (IC50 pH 7.6/IC50 pH 6.9): 2.0
GluN1/GluN2B receptors [2]; [6]
  pIC50: 6.63
GluN1/GluN2B receptors [2]; [7]
  pIC50: 6.29
[3]
  hERG Binding % Displacement @ 10 μM: 75%
α1-Adrenergic
  α1-Adrenergic binding % Displacement @ 3 μM: 7%
[4]
  remaining activity at 10 µM: 93.9%
GluN1/GluN2B receptors [5]
  pIC50: 6.44

## O=C1CCc2cc(OCC3CN(C(=O)Nc4ccc(Cl)cc4)C3)ccc2N1 [Compound 21, N-(4-chlorophenyl)-3-(((2-oxo-1,2,3,4-tetrahydroquinolin-6-yl)oxy)methyl)azetidine-1-carboxamide]
[1]
  remaining activity at 10 µM: 102%
GluN1/GluN2B receptors [2]
  Human pH Boost Ratio (IC50 pH 7.6/IC50 pH 6.9): 1.7
GluN1/GluN2B receptors [2]; [6]
  pIC50: 6.99
GluN1/GluN2B receptors [2]; [7]
  pIC50: 6.77
[3]
  hERG Binding % Displacement @ 10 μM: 25%
α1-Adrenergic
  α1-Adrenergic binding % Displacement @ 3 μM: 2%
[4]
  remaining activity at 10 µM: 89.2%
GluN1/GluN2B receptors [5]
  pIC50: 6.78
